The test system of test [1] is Drug-sensitive cells Saos2. Put plainly: Prevention of development of doxorubicin resistance, viable cell count, Saos2. Type of test: cell-based. The text has this: (§1) As discussed above, inhibition of cathepsin L enhanced drug response only in drug-resistant cells. Another aspect of the present invention was to determine whether treatment of drug-sensitive cancer cells with this drug combination prevents them from becoming drug resistant. […] After 4 days in culture, the surviving cells were subjected to the same treatment for an additional four days. The cells were then subjected to two subsequent treatments for four days with 2.5×10^−8 M doxorubicin with or without the cathepsin L inhibitor at 10 μM. The surviving cells were then treated with doxorubicin 5×10^−8 M doxorubicin with or without cathepsin L (10 μM) for four days. At the end of each incubation period, viable cells were counted.

The test system of test [2] is Drug-sensitive cells SKN-SH. The test is described as follows: Prevention of development of doxorubicin resistance, viable cell count, SKN-SH. Format: cell-based, human.
Source text: as §1

Test [3] deals with drug resistant osteosarcoma cells (Saos2-R). Put plainly: Cell count of drug resistant osteosarcoma cells after siRNA or inhibitor and doxorubicin. Type of test: cell-based. As to conditions: doxorubicin 10^−5 M for 48 hours, untreated 1.6e+6 AU. An excerpt:
The human cathepsin L siRNA was designed in our laboratory by studying a cDNA sequence of the human cathepsin L gene (SEQ ID NO: 2). We selected a segment defined by nucleotide numbers 91-111, sent that sequence to a contract laboratory (Dharmacon, Lafayette, Colo.), which synthesized an siRNA molecule based on the aforementioned segment. The segment of the human cathepsin L cDNA we used was: […] (91-111) (SEQ ID NO: 2). On the day before transfection, 3×10^5 drug resistant osteosarcoma cells (Saos2-R) were seeded in 6-well plates and grown in 2.5 ml of DMEM supplemented with 10% FBS. After 24 hours in culture, 25 μl of 20 μM stock solution of siRNA duplexes were transfected into cells with GeneSilencer™ SiRNA Transfection Reagent Kit (Gene Therapy Systems, Inc., San Diego, Calif.). Briefly, adherent cells were transfected in 6 well plates. Cells were about 70% confluent. In one tube, 5 μl of GeneSilencer™ was mixed with 25 μl of serum free medium. In a second tube, 25 μl of siRNA diluent was mixed with […] of serum free medium and 20 μl of siRNA (100 nM). After incubation of tubes 1 and 2, at room temperature for 5 min, they were mixed together into tube 3 and incubated for an additional 5 min. The content of tube 3 was added to the cells in the 6 well plates and incubated for 2 days before the addition of the drug. After 48 hours of incubation, doxorubicin (10^−5 M) was added and maintained in culture for an additional 48 hours before analysis. The cells were counted and protein lysates were used to detect cathepsin L expression by Western blot as described above.

Another test addresses T1, Purified cathepsin L (Homo sapiens, UniProt P07711).
T1 construct: purchased Biomol, Plymouth Meeting, Pa
Put plainly: Cathepsin L activity, fluorogenic substrate (CV-Cathepsin L Detection Kit). As to conditions: inhibitor 10 μM, 200 ng cathepsin L; positive control 4e+5 AU, negative control 0.75e+5 AU. Format: biochemical. The protocol: Cathepsin L activity was measured using a commercially available kit according to the manufacturer's procedure (CV-Cathepsin L Detection Kit; Biomol, Plymouth Meeting, Pa.). Purified cathepsin L (Biomol, Plymouth Meeting, Pa.) (200 ng) was incubated with each inhibitor (10 μM) in a 96 well plate for 15 min at room temperature in 100 μl of reaction buffer (100 mM sodium acetate pH 5, 1 mM EDTA (ethylenediaminetetraacetic acid), and 4 mM dithiothreitol). The protease inhibitors tested were: lactacystin and inhibitors of cathepsin L, B, S, and K. 100 μl of a fluorogenic substrate (CV-Cathepsin L Detection Kit; Biomol, Plymouth Meeting, Pa.) were added and incubated for an additional 30 min at room temperature. Fluorescence was measured in a plate reader (Victor Multilabel Counter, Perkin Elmer) at 380 nm excitation and […] emission wavelengths.

Another test deals with caspase-3. The test is described as follows: Western blot of cleaved (active) caspase-3 in SKN-SH/R cells. Type of test: cell-based, human. Particulars: cathepsin L inhibitor 10 μM + doxorubicin 10^−6M, 24 hours. The protocol: (§2) Doxorubicin resistant human neuroblastoma cells (SKN-SH/R) were subjected, in 25 cm^2 flasks, to treatment with a cathepsin L inhibitor and doxorubicin each, alone or in combination. After 24 hours of incubation, culture medium was removed and the cells washed twice with PBS. Proteins were solubilized with 150 μl of lysis buffer (50 mM HEPES pH 7.4, 150 mM NaCl, 100 mM NaF, 1 mM MgCl2, 1.5 mM EGTA, 10% glycerol, 1% Triton X100, 1 μg/ml leupeptin, 1 mM phenyl-methyl-sulfonyl-fluoride). Equal quantities of protein were separated by electrophoresis on a 12% SDS-PAGE gel and transferred to Immobilon-P membranes (Millipore, Bedford, Mass.). P21/WAF1 and cleaved (active) caspase-3 were detected by reaction with specific primary antibodies (P21/WAF1 primary antibody from Santa Cruz Biotechnologies, Santa Cruz, Calif.; and caspase-3 primary antibody from Cell Signaling Technology, Inc., Beverly, Mass.) after one hour of incubation at room temperature in PBS (pH7.4). This was followed by incubation of the membrane for 1 hour at room temperature with presence of secondary anti-Rabbit antibody linked to horseradish peroxidase (Bio-Rad Laboratories, Hercules, Calif.) (1/1000 in PBS). Reactive bands were detected by chemiluminescence.
(Immunoblotting shows a protein as a band on a membrane.)

In a further test the test system is p21/WAF1. The test is described as follows: Western blot of p21/WAF1 in SKN-SH/R cells. Type of test: cell-based, human. Particulars: 24 hours. The protocol:
as §2

Test [4] concerns Saos2 doxorubicin resistant. The test is described as follows: MTT cytotoxicity assay, Saos2 doxorubicin resistant cells. Type of test: cell-based. Particulars: Homo sapiens, SAOS-2, 96 hours, read-out: IC50 of doxorubicin alone (converted). As for the experimental part:
(§3) Cytotoxic activity of doxorubicin and cysteine protease inhibitors were quantitatively determined by a calorimetric assay utilizing 3-(4,5-dimethyl-2-thiazolyl) 2,5-diphenyl tetrazolium bromide (MTT; Sigma-Aldrich, St. Louis, Mo.). Briefly, cells were seeded at 10^4 cells/well in 96-well plates and maintained in culture for 24 hours at 37° C. in DMEM supplemented with 10% FBS. Drugs were added to designated wells and cells were incubated for 96 hours, following which MTT (10 μL of 5 mg/ml solution) was added to each 100 μl well and incubated for 4 hours at 37° C. The cells were solubilized by incubation with 100 μl of HCl 0.5N in isopropanol for 15 hours at 37° C. The optical density of this solution was measured at 570 nm and the percentage of viable cells estimated by comparison with untreated control cells.
(§4) The effect of cathepsin L inhibitor was tested on drug sensitive and resistant (R) cell lines corresponding to various cancer types, including the human neuroblastoma cell line SKN-SH (ATCC Cat. No. HTB-11), the murine neuroblastoma cell line Neuro2A (ATCC Cat. No. CCL-131), the osteosarcoma cells Saos2 (ATCC Cat. No. HTB-85) and the leukemia cell line HL-60 (ATCC Cat. No. CCL240). The cells were treated with cathepsin L inhibitor with or without doxorubicin as described above. Cell viability was calculated after 96 hours of incubation with the drug combination. […]
Background: Tetrazolium assays rely on reduction of a dye to a coloured formazan, in cell work by metabolically active cells.

Test [5] relates to breast cancer (MCF-7/doxR). Put plainly: cells. Particulars: Homo sapiens, MCF7, 192 h, read-out: percentage of viable cells, single agent.
Experimental: (§7) The following additional cell lines were tested: breast cancer (MCF-7/doxR) (MCF: ATCC Cat. No. HTB-22) and ovarian cancer (A2780/CR; European collection of cell culture cat# 931112519, Salisbury, UK). Cells were treated with doxorubicin (10^−5M) and/or a cathepsin L inhibitor (25 μM) for eight days. Viable cell number was counted and normalized to 100% of non-treated cells.
Test [6] deals with ovarian cancer (A2780/CR). Put plainly: cells. As to conditions: Homo sapiens, A2780, 192 h, read-out: percentage of viable cells, single agent.
Experimental: as §7
For another test, the system named is Saos2 wild type. The test is described as follows: MTT cytotoxicity assay, Saos2 wild type cells. Format: cell-based. Particulars: Homo sapiens, SAOS-2, 96 hours, read-out: IC50 of doxorubicin alone (converted). The protocol:
as §3, §4

Test [7] has as its system HL-60 doxorubicin resistance cells. Put plainly: MTT cytotoxicity assay, HL-60 doxorubicin resistant cells. Type of test: cell-based. As to conditions: Homo sapiens, 96 hours, read-out: IC50 of doxorubicin alone (converted). The protocol: as §3, §4
The next test deals with Neuro2A wild type. Put plainly: MTT cytotoxicity assay, Neuro2A wild type cells. Particulars: Mus musculus, N2a, 96 hours, read-out: IC50 of doxorubicin alone (converted). Format: cell-based, murine. As for the experimental part: as §3, §4
In the next test the test system is SKN-SH/R cells. Put plainly: MTT cytotoxicity assay, doxorubicin-resistant neuroblastoma cells. Format: cell-based. As to conditions: Homo sapiens, SK-N-SH, 96 h, read-out: IC50 (concentration at which 50% of cells remained viable) of the cytotoxic agent alone, SKN-SH/R cells, agent alone (control cells), 96 hours, MTT. As for the experimental part:
(§5) Human neuroblastoma SKN-SH cells (ATCC Cat. No. HTB-11) were cultured in Dulbecco's Modified Eagles Medium (DMEM; Gibco, Grand Island, N.Y.) supplemented with 10% fetal bovine serum (FBS; Sigma-Aldrich, St. Louis, Mo.) at 37° C. in a 95% Air/5% CO2 atmosphere. Resistant cells to doxorubicin (SKN-SH/R) were selected by stepwise exposure to drug concentrations ranging from 10^−9 M through 10^−6 M over a time period of three months. The resulting cell line was subjected to treatment with the doxorubicin alone or in combination with: proteosome inhibitor (Lactacystin), cathepsin B inhibitor (L-3-trans-(Propylcarbamoyl)oxirane-2-carbonyl]-L-isoleucyl-L praline), cathespin L inhibitor (Z-Phe-Tyr(t-Bu)-diazomethylketone), cathespin K inhibitor (1,3-Bis(N-CBZ-Leu-NH)-2-propanonel,3 -Di(N-carbonbenzoyloxy-L-leucyl)amino acetone), or cathespin S inhibitor (Z-Phe-Leu-COCHO.H2O), (all available from Calbiochem-Novabiochem, San Diego) at 10 μM each to determine whether they affect cell response to doxorubicin.
(§6) Cytotoxic activity of doxorubicin and cysteine protease inhibitors were quantitatively determined by a calorimetric assay utilizing 3-(4,5-dimethyl-2-thiazolyl) 2,5-diphenyl tetrazolium bromide (MTT; Sigma-Aldrich, St. Louis, Mo.). […] The optical density of this solution was measured at 570 nm and the percentage of viable cells estimated by comparison with untreated control cells. […]

Test [8] concerns Doxorubicin resistant human neuroblastoma cells (SKN-SH/R). Put plainly: Tumor growth of SKN-SH/R cells injected into nude mice. Type of test: in vivo. Particulars: nude mice, i.p. on day 11, 14, 17; doxorubicin alone 1.5 mg/Kg or iCL alone 30 mg/Kg. As for the experimental part:
Doxorubicin resistant human neuroblastoma cells (SKN-SH/R) cells grown into 75 cm^2 flasks were harvested by trypsinization and centrifuged to remove trypsin. The pellet was then reconstituted in culture medium at 10^7 cell/ml. On day one, 100 μl (10^6 cells) were injected to the right flank of nude mice (5 per group) and after the tumor became palpable at day 11, mice were assigned to four groups: 1) controls (treated with the vehicle DMSO), 2) Dox. 1.5 mg/kg (treated with doxorubicin alone 1.5 mg/Kg), 3) iCL 30 mg/Kg (treated with cathepsin L inhibitor alone at 30 mg/Kg), and 4) Dox 1.5 mg/Kg+iCL 30 mg/Kg (treated with the combination of doxorubicin 1.5 mg/Kg and cathepsin L inhibitor 30 mg/Kg). Intraperetoneal injections were given on day 11, day 14, and day 17.

In the next test the test system is HL-60 wild type. Put plainly: MTT cytotoxicity assay, HL-60 wild type cells. Type of test: cell-based. Particulars: Homo sapiens, 96 hours, read-out: IC50 of doxorubicin alone (converted). The protocol:
as §3, §4

Test [9] concerns Neuro2A doxorubicin resistant cells. Put plainly: MTT cytotoxicity assay, Neuro2A doxorubicin resistant cells. As to conditions: Mus musculus, N2a, 96 hours, read-out: IC50 of doxorubicin alone (converted). Format: cell-based, murine. The protocol:
as §3, §4

The test system of a further test is SKN-SH wild type cells. Put plainly: MTT cytotoxicity assay, SKN-SH wild type cells. Format: cell-based. Particulars: Homo sapiens, SK-N-SH, 96 h, read-out: IC50 of the cytotoxic agent alone. As for the experimental part: as §5, §6
[10] abbreviates: repeated four-day treatments with increasing doxorubicin.

SMILES strings stand for the structures. Peptide text beside a SMILES is read from it. * marks the point of attachment. Cbz = O=C(OCc1ccccc1)*; CHN2 = [N-]=[N+]=C*; tBu = CC(C)(C)*

T1 sequence (P07711 114-333, species assumed): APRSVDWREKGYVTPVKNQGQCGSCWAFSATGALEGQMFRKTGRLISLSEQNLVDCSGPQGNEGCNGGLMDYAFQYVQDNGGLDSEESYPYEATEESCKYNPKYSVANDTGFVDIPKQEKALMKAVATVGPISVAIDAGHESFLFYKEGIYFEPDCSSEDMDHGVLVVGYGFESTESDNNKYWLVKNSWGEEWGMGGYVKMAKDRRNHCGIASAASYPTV

Regarding `CC[C@H](C)[C@H](NS(=O)(=O)c1ccc2ccccc2c1)C(=O)N[C@H](C=O)Cc1c[nH]c2ccccc12` [cathepsin L inhibitor (Napsule-Ile-Tryp), Napsule-Ile-Tryp], the “viable cells, doxorubicin plus cathepsin L inhibition, first concentration” value in test [1] (Dox 10^−9 M + inhibitor 10 μM) was “about 90%”. Also, the “viable cells, doxorubicin plus cathepsin L inhibitor, first concentration” value in test [2] (Dox 10^−9 M + inhibitor 10 μM) was “about 80%”.

In the case of `CC(C)(C)Oc1ccc(C[C@H](NC(=O)[C@H](Cc2ccccc2)NC(=O)OCc2ccccc2)C(=O)C=[N+]=[N-])cc1` [cathepsin L inhibitor, Z-Phe-Tyr(t-Bu)-diazomethylketone] (Cbz-Phe-Tyr(tBu)-CHN2), the “cell number, in combination with doxorubicin” value in [3] is listed as 2.0e+5 AU. Besides, at Purified cathepsin L, the “cathepsin L activity (arbitrary units) in presence of inhibitor” value was 1e+5 AU. In addition, the “caspase-3 activation (Western blot), combination with doxorubicin 10^−6M” value in the test on caspase-3 was “increased caspase-3 activation”. Besides, the “expression of p21/WAF1 (Western blot), combination with doxorubicin 10^−6M” value in the test with p21/WAF1 (cathepsin L inhibitor 10 μM + doxorubicin 10^−6M) is listed as “decreased expression of p21/WAF1”. Also, the “expression of p21/WAF1 (Western blot), combination with doxorubicin 10^−7M” value with p21/WAF1 (cathepsin L inhibitor 10 μM + doxorubicin 10^−7M) was “enhanced expression of p21/WAF1”.

Take `COc1cccc2c1C(=O)c1c(O)c3c(c(O)c1C2=O)C[C@@](O)(C(=O)CO)C[C@@H]3O[C@H]1C[C@H](N)[C@H](O)[C@H](C)O1` [doxorubicin]: the IC50 in [4] is roughly 5.62 µM; in the test on Saos2 wild type it was roughly 100 nM; in test [7] it was roughly 31.6 µM; in the test with Neuro2A wild type, roughly 31.6 nM; in the test on SKN-SH/R cells it was roughly 178 nM; in the test on HL-60 wild type, roughly 56.2 nM. The IC50 in test [9] was roughly 3.16 µM; in the test on SKN-SH wild type cells, roughly 1.78 nM. The “effect on percentage of viable cells over successive treatments, doxorubicin alone” value in test [1] (setting [10]) is given as “no affect”. In addition, the results for the viability at 25 µM in [5] and in test [6] were roughly 50% and roughly 70%, respectively. Also, the “average tumor volume on day 27, single agent” value in test [8] is “approximately 1600 mm^3”. Moreover, the “change in percentage of viable cells over successive treatments, doxorubicin alone” value in test [2] (setting [10]) was “no change”.

The values are drawn from patent publication US20090312277A1, “Compositions And Methods For Reversing Or Preventing Resistance Of A Cancer Cell To A Cytotoxic Agent” (priority 2004, published 2009).
